Assays:
Adenosine receptor A1 = biological target: T1, Adenosine receptor A1 (Homo sapiens, UniProt P30542)
T1 sequence (P30542 whole entry): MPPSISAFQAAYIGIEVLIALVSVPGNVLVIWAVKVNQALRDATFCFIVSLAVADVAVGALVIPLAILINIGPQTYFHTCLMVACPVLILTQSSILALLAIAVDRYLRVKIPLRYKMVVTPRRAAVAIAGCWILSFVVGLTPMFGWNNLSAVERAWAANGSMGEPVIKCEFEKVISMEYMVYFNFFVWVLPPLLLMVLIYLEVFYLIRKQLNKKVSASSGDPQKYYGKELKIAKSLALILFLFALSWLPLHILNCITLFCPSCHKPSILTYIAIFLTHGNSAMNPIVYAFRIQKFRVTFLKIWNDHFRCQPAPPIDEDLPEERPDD

Adenosine receptor A3 = biological target: T2, Adenosine receptor A3 (Homo sapiens, UniProt P0DMS8)
T2 sequence (P0DMS8 whole entry): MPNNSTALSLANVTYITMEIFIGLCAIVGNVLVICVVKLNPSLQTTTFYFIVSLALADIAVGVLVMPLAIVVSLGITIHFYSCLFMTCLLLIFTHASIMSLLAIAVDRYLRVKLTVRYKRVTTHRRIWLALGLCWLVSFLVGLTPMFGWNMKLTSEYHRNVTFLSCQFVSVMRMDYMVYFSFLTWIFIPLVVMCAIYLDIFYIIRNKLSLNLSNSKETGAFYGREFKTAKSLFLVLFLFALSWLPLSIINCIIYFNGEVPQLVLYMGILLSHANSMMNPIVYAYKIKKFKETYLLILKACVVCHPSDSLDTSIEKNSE

[1] = biological target: T3, Alpha-2B adrenergic receptor (Homo sapiens, UniProt P18089)
T3 sequence (P18089 whole entry): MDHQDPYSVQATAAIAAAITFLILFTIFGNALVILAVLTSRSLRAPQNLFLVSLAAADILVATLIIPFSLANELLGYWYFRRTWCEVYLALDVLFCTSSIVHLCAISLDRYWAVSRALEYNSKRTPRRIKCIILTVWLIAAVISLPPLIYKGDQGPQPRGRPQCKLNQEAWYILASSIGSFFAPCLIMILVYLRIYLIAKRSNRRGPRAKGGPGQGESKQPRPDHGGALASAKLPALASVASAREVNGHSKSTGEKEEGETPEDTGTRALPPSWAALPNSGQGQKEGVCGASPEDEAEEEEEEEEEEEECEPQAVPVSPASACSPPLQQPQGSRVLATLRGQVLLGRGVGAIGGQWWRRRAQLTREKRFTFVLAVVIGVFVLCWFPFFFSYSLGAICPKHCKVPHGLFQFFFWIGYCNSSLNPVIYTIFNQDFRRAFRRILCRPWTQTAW

Cannabinoid receptor 1 = Cannabinoid receptor 1 (Homo sapiens, UniProt P21554); format: functional, cell-based
Cannabinoid receptor 1, sequence (P21554 whole entry): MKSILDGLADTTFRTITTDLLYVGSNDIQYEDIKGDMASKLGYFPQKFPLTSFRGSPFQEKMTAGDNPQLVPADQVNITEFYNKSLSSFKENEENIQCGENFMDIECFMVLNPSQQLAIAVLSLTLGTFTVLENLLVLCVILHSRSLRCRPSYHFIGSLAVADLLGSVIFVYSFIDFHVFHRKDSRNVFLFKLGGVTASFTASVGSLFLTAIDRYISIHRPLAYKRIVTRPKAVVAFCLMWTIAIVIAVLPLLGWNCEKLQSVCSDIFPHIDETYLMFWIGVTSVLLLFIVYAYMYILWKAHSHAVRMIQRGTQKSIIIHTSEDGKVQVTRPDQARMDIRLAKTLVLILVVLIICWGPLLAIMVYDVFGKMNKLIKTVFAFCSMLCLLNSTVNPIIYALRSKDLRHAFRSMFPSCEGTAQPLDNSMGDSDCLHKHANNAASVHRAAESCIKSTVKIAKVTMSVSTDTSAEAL

[2] = biological target: Glutamate receptor ionotropic, NMDA 1 (Rattus norvegicus, UniProt P35439)
Histamine H1 receptor = Histamine H1 receptor (Homo sapiens, UniProt P35367)
Histamine H1 receptor, sequence (P35367 whole entry): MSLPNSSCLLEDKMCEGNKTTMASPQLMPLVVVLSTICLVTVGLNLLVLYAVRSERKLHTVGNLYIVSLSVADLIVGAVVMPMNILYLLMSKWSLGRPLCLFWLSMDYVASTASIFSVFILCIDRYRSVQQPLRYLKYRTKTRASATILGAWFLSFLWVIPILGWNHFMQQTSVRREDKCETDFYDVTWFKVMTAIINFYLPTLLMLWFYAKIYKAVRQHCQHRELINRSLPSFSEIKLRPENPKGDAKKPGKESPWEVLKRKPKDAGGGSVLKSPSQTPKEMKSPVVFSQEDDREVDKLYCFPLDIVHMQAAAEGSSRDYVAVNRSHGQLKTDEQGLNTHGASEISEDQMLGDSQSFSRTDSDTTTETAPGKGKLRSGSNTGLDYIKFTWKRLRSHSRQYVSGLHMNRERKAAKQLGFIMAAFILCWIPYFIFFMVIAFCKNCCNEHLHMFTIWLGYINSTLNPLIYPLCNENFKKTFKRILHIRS

Histamine H2 receptor = Histamine H2 receptor (Homo sapiens, UniProt P25021); format: functional, cell-based
Histamine H2 receptor, sequence (P25021 whole entry): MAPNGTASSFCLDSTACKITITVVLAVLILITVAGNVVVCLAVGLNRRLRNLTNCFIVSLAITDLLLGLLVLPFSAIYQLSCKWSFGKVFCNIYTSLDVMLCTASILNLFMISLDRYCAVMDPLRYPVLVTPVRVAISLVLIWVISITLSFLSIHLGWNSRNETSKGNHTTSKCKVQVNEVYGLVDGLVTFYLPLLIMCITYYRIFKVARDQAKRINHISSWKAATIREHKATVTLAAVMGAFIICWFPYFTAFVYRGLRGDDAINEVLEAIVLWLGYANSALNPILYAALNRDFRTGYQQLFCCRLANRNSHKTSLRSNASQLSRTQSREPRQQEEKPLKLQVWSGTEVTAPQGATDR

Melanocortin receptor 3 = Melanocortin receptor 3 (Homo sapiens, UniProt P41968)
Melanocortin receptor 3, sequence (P41968 whole entry): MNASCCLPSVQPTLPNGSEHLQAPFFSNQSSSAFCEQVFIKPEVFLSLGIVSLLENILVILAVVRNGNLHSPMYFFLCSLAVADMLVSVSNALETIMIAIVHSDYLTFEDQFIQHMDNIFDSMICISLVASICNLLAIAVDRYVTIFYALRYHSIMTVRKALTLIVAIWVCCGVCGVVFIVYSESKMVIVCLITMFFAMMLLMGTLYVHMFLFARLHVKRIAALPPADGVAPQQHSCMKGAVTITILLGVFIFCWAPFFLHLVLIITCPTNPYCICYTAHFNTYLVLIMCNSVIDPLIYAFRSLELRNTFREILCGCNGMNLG

Motilin receptor = Motilin receptor (Homo sapiens, UniProt O43193)
Motilin receptor, sequence (O43193 whole entry): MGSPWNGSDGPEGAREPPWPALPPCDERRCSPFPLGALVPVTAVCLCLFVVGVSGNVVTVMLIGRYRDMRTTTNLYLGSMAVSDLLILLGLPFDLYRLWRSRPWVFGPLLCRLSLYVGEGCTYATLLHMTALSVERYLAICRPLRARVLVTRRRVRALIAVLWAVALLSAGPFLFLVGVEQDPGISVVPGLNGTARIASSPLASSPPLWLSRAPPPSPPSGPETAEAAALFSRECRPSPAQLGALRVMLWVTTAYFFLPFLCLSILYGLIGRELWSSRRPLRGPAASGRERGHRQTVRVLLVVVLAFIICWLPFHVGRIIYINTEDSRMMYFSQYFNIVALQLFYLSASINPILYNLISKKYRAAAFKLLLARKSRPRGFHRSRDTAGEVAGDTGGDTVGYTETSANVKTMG

[3] = biological target: T4, Neuropeptide Y receptor type 1 (Homo sapiens, UniProt P25929)
T4 sequence (P25929 whole entry): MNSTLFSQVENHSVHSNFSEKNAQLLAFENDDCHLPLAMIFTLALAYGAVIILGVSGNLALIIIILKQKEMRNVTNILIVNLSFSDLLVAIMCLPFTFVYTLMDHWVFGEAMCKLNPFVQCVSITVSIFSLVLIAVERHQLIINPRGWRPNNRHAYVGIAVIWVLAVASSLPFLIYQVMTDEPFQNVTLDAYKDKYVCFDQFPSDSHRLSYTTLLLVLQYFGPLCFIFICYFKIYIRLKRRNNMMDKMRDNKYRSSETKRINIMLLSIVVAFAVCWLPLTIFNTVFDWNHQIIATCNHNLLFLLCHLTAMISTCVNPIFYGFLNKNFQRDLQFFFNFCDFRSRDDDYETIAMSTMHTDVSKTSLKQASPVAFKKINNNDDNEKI

Thromboxane A2 receptor = biological target: T5, Thromboxane A2 receptor (Homo sapiens, UniProt P21731)
T5 sequence (P21731 whole entry): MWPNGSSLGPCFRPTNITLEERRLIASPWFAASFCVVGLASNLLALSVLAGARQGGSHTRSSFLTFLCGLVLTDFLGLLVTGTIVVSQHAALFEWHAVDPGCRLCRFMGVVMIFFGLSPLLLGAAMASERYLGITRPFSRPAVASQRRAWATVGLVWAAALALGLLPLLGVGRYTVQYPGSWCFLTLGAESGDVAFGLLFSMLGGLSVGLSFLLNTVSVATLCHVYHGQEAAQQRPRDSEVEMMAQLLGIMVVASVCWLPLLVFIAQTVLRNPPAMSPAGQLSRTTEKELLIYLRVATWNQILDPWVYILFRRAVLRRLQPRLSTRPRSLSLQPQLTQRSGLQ

[4] = biological target: Sodium-dependent dopamine transporter (Homo sapiens, UniProt Q01959)
Sodium-dependent dopamine transporter, sequence (Q01959 whole entry): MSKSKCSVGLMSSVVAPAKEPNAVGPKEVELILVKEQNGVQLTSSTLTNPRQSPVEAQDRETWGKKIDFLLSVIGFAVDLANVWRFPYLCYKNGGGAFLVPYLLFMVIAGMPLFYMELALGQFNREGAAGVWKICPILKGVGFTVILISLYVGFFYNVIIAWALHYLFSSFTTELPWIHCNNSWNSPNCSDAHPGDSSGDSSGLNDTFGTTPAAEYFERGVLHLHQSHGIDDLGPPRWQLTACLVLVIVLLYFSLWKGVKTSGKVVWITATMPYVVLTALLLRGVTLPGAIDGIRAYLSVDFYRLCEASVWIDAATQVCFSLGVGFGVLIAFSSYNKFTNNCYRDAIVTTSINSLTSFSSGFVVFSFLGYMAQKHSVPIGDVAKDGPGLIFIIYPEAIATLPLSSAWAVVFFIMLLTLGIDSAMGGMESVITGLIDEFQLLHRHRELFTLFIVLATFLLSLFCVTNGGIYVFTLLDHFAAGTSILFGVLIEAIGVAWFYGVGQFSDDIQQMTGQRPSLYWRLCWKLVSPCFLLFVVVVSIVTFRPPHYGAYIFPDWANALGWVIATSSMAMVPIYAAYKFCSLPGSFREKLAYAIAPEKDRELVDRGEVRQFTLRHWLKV

[5] = biological target: Sodium-dependent noradrenaline transporter (Homo sapiens, UniProt P23975)
Sodium-dependent noradrenaline transporter, sequence (P23975 whole entry): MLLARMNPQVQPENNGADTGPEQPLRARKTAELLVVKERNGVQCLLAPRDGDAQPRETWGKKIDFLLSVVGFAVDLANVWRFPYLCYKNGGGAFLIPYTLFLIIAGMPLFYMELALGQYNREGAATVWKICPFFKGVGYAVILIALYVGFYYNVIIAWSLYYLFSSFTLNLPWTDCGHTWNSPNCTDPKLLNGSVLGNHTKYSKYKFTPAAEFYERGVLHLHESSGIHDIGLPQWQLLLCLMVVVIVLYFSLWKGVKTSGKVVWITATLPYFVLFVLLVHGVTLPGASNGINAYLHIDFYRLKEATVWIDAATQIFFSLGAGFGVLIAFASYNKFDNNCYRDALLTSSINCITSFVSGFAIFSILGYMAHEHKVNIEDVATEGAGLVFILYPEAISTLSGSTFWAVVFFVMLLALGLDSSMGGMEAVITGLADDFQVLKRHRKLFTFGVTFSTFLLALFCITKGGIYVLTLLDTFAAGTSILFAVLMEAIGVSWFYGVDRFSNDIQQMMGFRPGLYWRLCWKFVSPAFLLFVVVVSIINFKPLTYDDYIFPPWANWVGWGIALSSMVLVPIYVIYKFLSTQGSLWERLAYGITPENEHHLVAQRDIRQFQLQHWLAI

[6] = biological target: T6, Alpha-1A adrenergic receptor (Homo sapiens, UniProt P35348); format: functional, cell-based
T6 sequence (P35348 whole entry): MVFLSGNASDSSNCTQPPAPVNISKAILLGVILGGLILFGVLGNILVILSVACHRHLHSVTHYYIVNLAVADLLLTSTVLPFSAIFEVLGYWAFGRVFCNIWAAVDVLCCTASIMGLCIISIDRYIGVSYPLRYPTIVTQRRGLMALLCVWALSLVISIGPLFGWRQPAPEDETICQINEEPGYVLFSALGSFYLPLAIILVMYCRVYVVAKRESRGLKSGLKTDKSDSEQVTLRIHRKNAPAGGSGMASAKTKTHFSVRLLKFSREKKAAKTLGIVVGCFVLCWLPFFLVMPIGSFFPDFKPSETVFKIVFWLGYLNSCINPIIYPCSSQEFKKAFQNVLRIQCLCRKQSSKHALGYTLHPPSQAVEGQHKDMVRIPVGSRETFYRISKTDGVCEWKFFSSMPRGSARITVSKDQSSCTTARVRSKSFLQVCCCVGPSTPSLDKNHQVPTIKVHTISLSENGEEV
Also: assay procedure not described here.

| SMILES | AC50 (Adenosine receptor A1) [µM] | AC50 (Adenosine receptor A3) [µM] | AC50 [1] [µM] | AC50 (Cannabinoid receptor 1) [µM] | AC50 [2] [µM] | AC50 (Histamine H1 receptor) [µM] | AC50 (Histamine H2 receptor) [µM] | AC50 (Melanocortin receptor 3) [µM] | AC50 (Motilin receptor) [µM] | AC50 [3] [µM] | AC50 (Thromboxane A2 receptor) [µM] | AC50 [4] [µM] | AC50 [5] [µM] | AC50 [6] [µM] |
| --- | --- | --- | --- | --- | --- | --- | --- | --- | --- | --- | --- | --- | --- | --- |
| CN(C)C(=O)OC1N=C(c2ccccc2)c2cc(Cl)ccc2N(C)C1=O (stereo not drawn) [CAMAZEPAM] | > 30 | > 30 | > 10 | > 30 | > 10 | > 10 | > 10 | > 30 | > 10 | > 30 | > 30 | > 10 | > 10 | > 30 |
| Nc1ncnc2c1ncn2[C@@H]1O[C@H](COP(=O)(O)O)[C@@H](O)[C@H]1O [ADENOSINE PHOSPHATE] | > 30 | > 30 | > 30 | > 30 | > 30 | > 30 | > 30 | > 30 | > 30 | > 30 | > 30 | > 30 | > 30 | > 30 |
| CC(C)C(=O)OCC(=O)[C@@]12O[C@H](C3CCCCC3)O[C@@H]1C[C@H]1[C@@H]3CCC4=CC(=O)C=C[C@]4(C)[C@H]3[C@@H](O)C[C@@]12C [CICLESONIDE] | > 30 | 4.2 | > 10 | > 30 | > 10 | > 10 | > 10 | > 10 | > 10 | > 10 | > 10 | > 10 | > 10 | > 30 |
| CCC1(C2=CCCCCC2)C(=O)NC(=O)NC1=O [HEPTABARBITAL] | > 10 | > 10 | > 10 | > 30 | > 10 | > 10 | > 10 | > 10 | > 10 | > 10 | > 10 | > 10 | > 10 | > 30 |
| Cc1ccc(-c2nc3ccc(C)cn3c2CC(=O)N(C)C)cc1 [ZOLPIDEM] | > 30 | > 30 | > 30 | > 30 | > 30 | > 30 | > 10 | > 30 | > 30 | > 30 | > 30 | > 30 | > 30 | > 30 |
| CCC(C(=O)O)c1ccc(CC(C)C)cc1 (stereo not drawn) [BUTIBUFEN] | > 30 | > 30 | > 30 | > 30 | > 30 | > 30 | > 30 | > 30 | > 30 | > 30 | > 30 | > 30 | > 30 | > 30 |
| CCOc1cc(N)c([N+](=O)[O-])cc1C(=O)NC1CCN(CC2CC=CCC2)CC1 (stereo not drawn) [CINITAPRIDE] | > 30 | > 30 | 9.3 | > 30 | > 30 | 27 | > 30 | > 30 | 8.1 | > 30 | > 30 | 20 | 24 | > 30 |
